Converted amounts (≈) assume the structure as drawn.
Experiments:
[1] = molecular target: human Fibroblast activation protein alpha (hFAP) (Homo sapiens (Human), UniProt Q12884); assay: hFAP inhibition assay (tight binders); assay type: biochemical; settings: Ala-Pro-AMC 20 μM, n = 1 or geometric mean n = 2-6; also: hFAP 2.4 pM
Procedure: The plates were read on a PHERAstar® reader with excitation 340 nm and emission 460 nm. Data were analyzed in Genedata Screener®. IC50 values were determined by plotting % inhibition versus log compound concentration and using a one site dose response model.

[2] = molecular target: hFAP (M39-A757) (Homo sapiens (Human), UniProt Q12884); assay: hFAP binding assay (surface plasmon resonance); settings: SPR, 20° C.; for hFAP Binding assay k(off) / hFAP Binding assay k(on): single cycle kinetics; for Kd: n = 1 or geometric mean n = 2-4
[3] = molecular target: Prolyl endopeptidase, Prolyl Oligopeptidase (hPREP) (Homo sapiens (Human), UniProt P48147); assay: hPrep inhibition assay; assay type: biochemical; settings: hPREP 0.6 nM, Z-Gly-Pro-amino-methylcoumarin 50 μM; read-out: PREP IC50
How it was run: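 Fluorogenic read-out (340 nm excitation, 460 nm emission) after 20 min at rt, using 50 μM final Z-Gly-Pro-aminomethylcoumarin and 0.6 nM final enzyme, following 15 min compound preincubation. Buffer pH 7.5 with glutathione and Triton X-100. IC50 via one-site model on % inhibition vs log concentration.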

[4] = Kinetic solubility; settings: kinetic from dmso stock
Procedure: Kinetic solubility was measured as described in Comput Aided Mol Des 2015, 29, 795.

[5] = Caco-2 cell permeability; settings: human
Procedure: Caco-2 cell permeability was measured as described in Mol Pharm 2017, 14, 1601.

[6] = Metabolic stability in rat hepatocytes (rHep); settings: n = 1 or geometric mean of n = 2-3
[7] = Metabolic stability in human liver microsomes (HLM); settings: human
Procedure: Metabolic stability in HLM was measured as described in J Comput Aided Mol Des 2015, 29, 795.

[8] = Solubility, kinetic solubility, n = 1 or average of n = 2-3
[9] = HLM CLint, n = 1 or average of n = 2-3

Chain of Prolyl endopeptidase, Prolyl Oligopeptidase (hPREP) (P48147 whole entry): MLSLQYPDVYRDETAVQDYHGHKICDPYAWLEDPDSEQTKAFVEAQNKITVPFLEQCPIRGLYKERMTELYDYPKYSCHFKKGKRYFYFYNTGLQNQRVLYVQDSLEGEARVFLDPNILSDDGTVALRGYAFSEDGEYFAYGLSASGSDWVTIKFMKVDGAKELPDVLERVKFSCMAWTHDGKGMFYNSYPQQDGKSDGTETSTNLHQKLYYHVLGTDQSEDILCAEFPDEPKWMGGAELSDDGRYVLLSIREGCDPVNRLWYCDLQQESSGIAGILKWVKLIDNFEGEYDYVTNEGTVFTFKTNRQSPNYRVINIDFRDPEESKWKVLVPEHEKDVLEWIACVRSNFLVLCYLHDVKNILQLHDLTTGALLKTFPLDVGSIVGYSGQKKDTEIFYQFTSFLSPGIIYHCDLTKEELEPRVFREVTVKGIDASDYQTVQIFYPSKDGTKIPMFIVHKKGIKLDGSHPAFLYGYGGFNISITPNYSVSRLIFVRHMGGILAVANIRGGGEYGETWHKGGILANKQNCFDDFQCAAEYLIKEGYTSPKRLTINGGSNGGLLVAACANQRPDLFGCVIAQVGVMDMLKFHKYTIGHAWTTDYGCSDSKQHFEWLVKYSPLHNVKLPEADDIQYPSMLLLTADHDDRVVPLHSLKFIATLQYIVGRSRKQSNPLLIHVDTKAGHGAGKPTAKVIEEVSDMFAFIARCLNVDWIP
Chain of human Fibroblast activation protein alpha (hFAP) (Q12884 38-760): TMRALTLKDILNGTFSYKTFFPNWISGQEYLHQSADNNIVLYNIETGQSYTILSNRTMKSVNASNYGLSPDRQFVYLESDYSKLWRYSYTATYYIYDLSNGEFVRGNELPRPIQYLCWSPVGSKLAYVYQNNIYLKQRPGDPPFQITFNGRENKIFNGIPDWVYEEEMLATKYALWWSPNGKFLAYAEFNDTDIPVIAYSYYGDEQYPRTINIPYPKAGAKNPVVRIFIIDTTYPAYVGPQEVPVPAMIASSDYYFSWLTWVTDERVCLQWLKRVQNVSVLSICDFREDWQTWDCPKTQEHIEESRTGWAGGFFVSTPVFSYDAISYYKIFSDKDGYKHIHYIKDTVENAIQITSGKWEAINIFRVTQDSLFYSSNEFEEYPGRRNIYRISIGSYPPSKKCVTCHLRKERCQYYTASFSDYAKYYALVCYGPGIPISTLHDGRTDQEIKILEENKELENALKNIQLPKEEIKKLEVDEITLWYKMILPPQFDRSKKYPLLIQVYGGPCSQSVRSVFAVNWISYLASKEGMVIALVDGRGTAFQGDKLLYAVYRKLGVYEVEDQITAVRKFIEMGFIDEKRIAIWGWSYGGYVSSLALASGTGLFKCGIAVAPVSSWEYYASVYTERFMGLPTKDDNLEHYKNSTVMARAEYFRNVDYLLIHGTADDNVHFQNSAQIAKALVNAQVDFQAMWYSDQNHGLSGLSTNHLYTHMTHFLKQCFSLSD
Chain of hFAP (M39-A757) (Q12884 39-757): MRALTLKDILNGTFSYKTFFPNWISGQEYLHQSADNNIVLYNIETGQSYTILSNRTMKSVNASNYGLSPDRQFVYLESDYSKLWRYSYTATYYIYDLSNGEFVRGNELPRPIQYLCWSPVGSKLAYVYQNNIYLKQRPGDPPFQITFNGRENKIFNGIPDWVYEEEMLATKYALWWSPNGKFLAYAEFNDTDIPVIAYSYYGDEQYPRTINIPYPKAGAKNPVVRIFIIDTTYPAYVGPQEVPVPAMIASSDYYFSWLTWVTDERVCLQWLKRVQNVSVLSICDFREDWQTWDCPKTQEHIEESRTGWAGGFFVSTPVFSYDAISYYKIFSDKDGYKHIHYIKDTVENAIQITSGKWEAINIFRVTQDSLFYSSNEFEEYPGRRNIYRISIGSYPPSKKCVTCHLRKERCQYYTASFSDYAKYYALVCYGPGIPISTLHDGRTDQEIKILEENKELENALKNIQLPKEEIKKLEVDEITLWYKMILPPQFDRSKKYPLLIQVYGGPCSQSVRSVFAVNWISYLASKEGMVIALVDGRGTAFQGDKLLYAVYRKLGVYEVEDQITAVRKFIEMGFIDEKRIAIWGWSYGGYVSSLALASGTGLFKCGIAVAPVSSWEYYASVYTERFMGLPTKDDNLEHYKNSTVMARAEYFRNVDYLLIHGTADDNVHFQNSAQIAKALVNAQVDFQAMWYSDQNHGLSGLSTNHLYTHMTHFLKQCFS

IC50 [1] [pM] | hFAP Binding assay k(off) [2] [s⁻¹] | hFAP Binding assay k(on) [2] [M⁻¹ s⁻¹] | Kd [2] [pM] | IC50 [3] [pM] | solubility [4, 8] [µM] | Papp A→B [5] [×10⁻⁶ cm/s] | Papp B→A [5] [×10⁻⁶ cm/s] | efflux ratio [5] | rHep CLint [6] [μL/min/1E6] | microsomal CLint [7, 9] [µL/min/mg] | Papp [5] [×10⁻⁶ cm/s] | Structure (SMILES) | solubility [4] [µM] | microsomal CLint [7] [µL/min/mg]
160 | 0.000075 | 740000 | 100 | 510000 | > 1000 | 0.34 | 20 | 59 | 2.6 | 31 |  | C[C@@H]1CN(c2ccc3nccc(C(=O)NCC(=O)N4CSC[C@H]4C#N)c3c2)C[C@H](C)[C@@H]1O [Example 7, N-(2-((R)-4-Cyanothiazolidin-3-yl)-2-oxoethyl)-6-((3S,4S,5R)-4-hydroxy-3,5-dimethylpiperidin-1-yl)quinoline-4-carboxamide] |  | 
80 | 0.000052 | 1000000 | 51 | 510000 | > 1000 | 0.64 | 20 | 31 | 3.5 | 4.2 |  | N#C[C@@H]1CSCN1C(=O)CNC(=O)c1ccnc2ccc(N3C[C@H]4C[C@@H]3CO4)cc12 [Example 76, 6-((1R,4R)-2-Oxa-5-azabicyclo[2.2.1]heptan-5-yl)-N-(2-((R)-4-cyano-thiazolidin-3-yl)-2-oxoethyl)quinoline-4-carboxamide] |  | 
56 | 0.00011 | 2900000 | 38 | 410000 | 38 | 3.4 | 36 | 11 | 22 | 20 |  | C[C@]1(F)CCN(c2ccc3nccc(C(=O)NCC(=O)N4CSC[C@H]4C#N)c3c2)C1 (mixture of isomers) [Example 198, N-(2-((R)-4-Cyanothiazolidin-3-yl)-2-oxoethyl)-6-((RS)-3-fluoro-3-methylpyrrolidin-1-yl)quinoline-4-carboxamide] |  | 
50 | 0.000024 | 2300000 | 6.3 | 490000 | 930 (≈ 394 µg/mL) | 0.77 | 17 | 21 | 6.7 | 9 |  | N#C[C@@H]1CSCN1C(=O)CNC(=O)c1ccnc2ccc(N3C[C@@H]4C[C@H]3CO4)cc12 [Example 75, 6-((1S,4S)-2-Oxa-5-azabicyclo[2.2.1]heptan-5-yl)-N-(2-((R)-4-cyano-thiazolidin-3-yl)-2-oxoethyl)quinoline-4-carboxamide] |  | 
60 |  |  | 49 | 220000 | 11 (≈ 5.32 µg/mL) | 1.9 | 32 | 17 | 32 | 93 |  | N#C[C@@H]1CSCN1C(=O)CNC(=O)c1ccnc2ccc(N3CC(F)(F)OC(F)(F)C3)cc12 [Example 5, (R)—N-(2-(4-Cyanothiazolidin-3-yl)-2-oxoethyl)-6-(2,2,6,6-tetrafluoromorpholino)quinoline-4-carboxamide] |  | 
51 | 0.000014 | 1300000 | 7.7 | 200000 | 530 (≈ 248 µg/mL) | 0.51 | 39 | 76 | 2.9 | 28 |  | CC(C)C1(O)CCN(c2ccc3nccc(C(=O)NCC(=O)N4CSC[C@H]4C#N)c3c2)CC1 [Example 192, (R)—N-(2-(4-Cyanothiazolidin-3-yl)-2-oxoethyl)-6-(4-hydroxy-4-isopropyl-piperidin-1-yl)quinoline-4-carboxamide] |  | 
320 | 0.000063 | 1200000 | 51 | 670000 | > 1000 |  |  |  | <1 | < 3 | 0.51 | CC1(O)CN(c2ccc3nccc(C(=O)NCC(=O)N4CSC[C@H]4C#N)c3c2)C1 [Example 165, (R)—N-(2-(4-Cyanothiazolidin-3-yl)-2-oxoethyl)-6-(3-hydroxy-3-methyl-azetidin-1-yl)quinoline-4-carboxamide] |  | 
73 | 0.000068 | 3000000 | 23 | 670000 | 50 |  |  |  | <1 | < 3 | 1.2 | N#C[C@@H]1CSCN1C(=O)CNC(=O)c1ccnc2ccc(N3C[C@H](O)C(F)(F)C3)cc12 (mixture of isomers) [Example 224, N-(2-((R)-4-Cyanothiazolidin-3-yl)-2-oxoethyl)-6-((RS)-3,3-difluoro-4-hydroxypyrrolidin-1-yl)quinoline-4-carboxamide] |  | 
43 | 0.00012 | 16000000 | 18 | 630000 | 610 (≈ 267 µg/mL) | 1.1 | 33 | 29 | 6.2 | 21 |  | N#C[C@@H]1CSCN1C(=O)CNC(=O)c1ccnc2ccc(N3CC4CCC(C3)O4)cc12 [Example 79, 6-(8-Oxa-3-azabicyclo[3.2.1]octan-3-yl)-N-(2-((R)-4-cyanothiazolidin-3-yl)-2-oxoethyl)quinoline-4-carboxamide] |  | 
170 | 0.000053 | 4600000 | 11 | 430000 | 280 (≈ 119 µg/mL) | 2.3 | 30 | 13 | 1.4 | < 3 |  | CO[C@H]1CCN(c2ccc3nccc(C(=O)NCC(=O)N4CSC[C@H]4C#N)c3c2)C1 [Example 207, N-(2-((R)-4-Cyanothiazolidin-3-yl)-2-oxoethyl)-6-((S)-3-methoxy-pyrrolidin-1-yl)quinoline-4-carboxamide] |  | 
65 | 0.000064 | 1900000 | 38 | 510000 | 830 (≈ 363 µg/mL) | 0.29 | 19 | 65 | <1 | 6.4 |  | CC1(C)CCN(c2ccc3nccc(C(=O)NCC(=O)N4CSC[C@H]4C#N)c3c2)C1=O [Example 12, (R)—N-(2-(4-Cyanothiazolidin-3-yl)-2-oxoethyl)-6-(3,3-dimethyl-2-oxopyrrolidin-1-yl)quinoline-4-carboxamide] |  | 
92 | 0.000054 | 910000 | 59 | 590000 | 850 (≈ 362 µg/mL) | 0.32 | 12 | 37 | 2.7 | < 3 |  | CCC1(O)CN(c2ccc3nccc(C(=O)NCC(=O)N4CSC[C@H]4C#N)c3c2)C1 [Example 154, (R)—N-(2-(4-Cyanothiazolidin-3-yl)-2-oxoethyl)-6-(3-ethyl-3-hydroxy-azetidin-1-yl)quinoline-4-carboxamide] |  | 

Structure (SMILES) | IC50 [1] [pM] | hFAP Binding assay k(off) [2] [s⁻¹] | hFAP Binding assay k(on) [2] [M⁻¹ s⁻¹] | Kd [2] [pM] | IC50 [3] [pM] | solubility [4, 8] [µM] | Papp A→B [5] [×10⁻⁶ cm/s] | Papp B→A [5] [×10⁻⁶ cm/s] | efflux ratio [5] | rHep CLint [6] [μL/min/1E6] | microsomal CLint [7, 9] [µL/min/mg] | Papp [5] [×10⁻⁶ cm/s] | solubility [4] [µM] | microsomal CLint [7] [µL/min/mg]
N#C[C@@H]1CSCN1C(=O)CNC(=O)c1ccnc2ccc(N3CC4(CC(F)C4)C3)cc12 [Example 155, (R)—N-(2-(4-Cyanothiazolidin-3-yl)-2-oxoethyl)-6-(6-fluoro-2-azaspiro[3.3]heptan-2-yl)quinoline-4-carboxamide] | 86 | 0.000050 | 3100000 | 16 | 380000 |  | 4.2 | 27 | 6.5 | 3.2 |  |  | 400 (≈ 176 µg/mL) | 19
N#C[C@@H]1CSCN1C(=O)CNC(=O)c1ccnc2ccc(N3CCC4(CC3)COC4)cc12 [Example 229, (R)—N-(2-(4-cyanothiazolidin-3-yl)-2-oxoethyl)-6-(2-oxa-7-azaspiro[3.5]nonan-7-yl)quinoline-4-carboxamide] | 91 | 0.000026 | 2400000 | 10 | 320000 |  | 22 | 32 |  | 15 |  | 0.7 | > 1000 | < 3
